{"source": "patent US10716750B2", "about": "“Topical ophthalmic formulations of endothelin receptor antagonists” (Retinset, S.L., priority 2015, dated 2020)", "key": {"diabetic mice (db/db) [1]": {"tested_on": "diabetic mice (db/db)", "test": "Immunohistochemical evaluation of apoptosis (TUNEL staining of retina sections) after topical ocular treatment", "type": "in vivo", "description": "(§1) In tests 12 male db/db mice aged 10 weeks (Harlan Laboratories, Inc.) were used, and were divided into two groups: 6 of these mice were treated with a formulation of the present invention, and 6 mice with a sodium chloride solution, as described below. 6 non-diabetic (db/+) mice matched by age were also used as the control group.\n(§2) On day 15, approximately 1 hour before necropsy, a drop of formulation of the present invention or vehicle was instilled in the eyes of the animals. Following euthanasia, eyes were enucleated. The neuroretina from one of the eyes was extracted, frozen in liquid nitrogen and stored at a temperature of −80° C. The other eye was fixed with a solution of 4% paraformaldehyde, processed routinely, and embedded in paraffin blocks.\nImmunohistochemical analysis for apoptosis assessment was carried out TUNEL (Terminal Transferase dUTP Nick-End Labeling) staining using the DeadEnd Fluorometric TUNEL System Kit (Promega, Madison, Wis., USA).\nCryosections of retina were permeabilized by incubation on ice for 2 min with 0.1% Triton X-100 and 0.1% sodium citrate freshly prepared solution. The secondary antibody was Alexa 488 goat anti-rabbit (Invitrogen, San Diego Calif., USA). For evaluation by Laser Scanning Confocal microscopy, the excitation wavelength was 488 nm and detection in the range from 515 to 565 nm, which corresponds to green colour.\nThe evaluation was carried out in the retina of each animal and a minimum of 10 sections per retina."}, "diabetic mice (db/db) [2]": {"tested_on": "diabetic mice (db/db)", "test": "Determination of glial activation (GFAP staining score, confocal microscopy of retina sections) after topical ocular treatment", "type": "in vivo", "description": "as §1, §2\nGlial activation was evaluated by Laser Scanning Confocal microscopy using specific antibodies against GFAP (glial fibrillary acidic protein). Retina sections were fixed in acidic methanol at −20° C. for 2 min, followed by three washes with phosphate buffer (PBS) for 5 min each. Retina sections were permeabilized with a tris buffer (TBS) with 0.025% Triton® X-100 and incubated for 2 hours at room temperature in a blocker solution composed of 1% BSA (serum albumin bovine) and 10% goat serum in 10% PBS. Retina sections were incubated with rabbit anti-GFAP antibody (Abcam Ltd, Cambridge, UK; 1:500 dilution prepared in blocking solution) overnight at 4° C. in a humid atmosphere. After three washes with PBS solution, 5 minutes each, the retina sections were incubated with the secondary antibody Alexa 488 goat anti-rabbit (Invitrogen, San Diego Calif., USA) at a 1:200 dilution prepared in blocking solution. Retina sections were washed three times with PBS, counterstained with Hoechst, mounted with Mounting Medium Fluorescence (Prolong, Invitrogen) and mounted with a coverslip. Comparative digital images from samples were recorded with FluoView FV 1000 Laser Scanning Confocal microscope Olympus using identical settings for brightness and contrast.\nA scoring system based on the extent of GFAP staining described in Anderson et al., Glial and endothelial blood-retinal barrier responses to amyloid-β in the neural retina of the rat, Olin. Ophthalmol., 2008, 2, 801-816, was used in order to assess the degree of glial activation. This scoring system was as follows: • Score 1: Müller cell endfeet/ ganglion retinal cell layer (GCL) only; • Score 2: Müller cell endfeet region/GCL plus a few proximal processes; • Score 3: Müller cell endfeet plus many processes, but not extending to the outer nuclear layer (ONL) of the retina; • Score 4: Müller cell endfeet plus processes throughout with some in the ONL; • Score 5: Müller cell endfeet plus lots of dark processes from GCL to outer margin of ONL.\nThe score was assessed on the retina of each animal and a minimum of 10 sections per retina."}}, "note": "“Also recorded” adds a separate entry of the source."}
{"compound": "COc1ccccc1Oc1c(NS(=O)(=O)c2ccc(C(C)(C)C)cc2)nc(-c2ncccn2)nc1OCCO", "note": "[Bosentan]", "values": [{"measurement": "apoptosis in all retinal layers (in words)", "setting": "diabetic mice (db/db) [1]; 14 days, twice per day, versus control (db/+) and vehicle-treated diabetic animals", "result": "reduced apoptosis"}, {"measurement": "TUNEL staining-positive cell percentage, GCL, mean (standard deviation)", "setting": "diabetic mice (db/db) [1]; topical ocular, twice daily for 14 days, ganglion cell layer, p <0.001 vs vehicle", "result": "1.42 (0.38) %"}, {"measurement": "TUNEL staining-positive cell percentage, INL, mean (standard deviation)", "setting": "diabetic mice (db/db) [1]; topical ocular, twice daily for 14 days, inner nuclear layer, p <0.001 vs vehicle", "result": "0.36 (0.31) %"}, {"measurement": "TUNEL staining-positive cell percentage, ONL, mean (standard deviation)", "setting": "diabetic mice (db/db) [1]; topical ocular, twice daily for 14 days, outer nuclear layer, p <0.001 vs vehicle", "result": "0 (0.07) %"}, {"measurement": "glial activation / reactive gliosis (in words)", "setting": "diabetic mice (db/db) [2]; 14 days, twice per day, versus vehicle-treated diabetic animals", "result": "significant decrease of reactive gliosis; also recorded: less glial activation"}, {"measurement": "degree of glial activation (percentage for each score of GFAP expression), Score 1", "setting": "diabetic mice (db/db) [2]; one 5 μl drop of formulation of Example 1 per eye, twice daily for 14 days, Score 1: Müller cell endfeet/GCL only", "result": 85, "unit": "%"}, {"measurement": "degree of glial activation (percentage for each score of GFAP expression), Score 2", "setting": "diabetic mice (db/db) [2]; one 5 μl drop of formulation of Example 1 per eye, twice daily for 14 days, Score 2: endfeet region/GCL plus a few proximal processes", "result": 15, "unit": "%"}, {"measurement": "degree of glial activation (percentage for each score of GFAP expression), Score 3", "setting": "diabetic mice (db/db) [2]; one 5 μl drop of formulation of Example 1 per eye, twice daily for 14 days, Score 3: endfeet plus many processes, not extending to ONL", "result": 0, "unit": "%"}, {"measurement": "degree of glial activation (percentage for each score of GFAP expression), Score 4", "setting": "diabetic mice (db/db) [2]; one 5 μl drop of formulation of Example 1 per eye, twice daily for 14 days, Score 4: endfeet plus processes throughout with some in the ONL", "result": 0, "unit": "%"}, {"measurement": "degree of glial activation (percentage for each score of GFAP expression), Score 5", "setting": "diabetic mice (db/db) [2]; one 5 μl drop of formulation of Example 1 per eye, twice daily for 14 days, Score 5: endfeet plus lots of dark processes from GCL to outer margin of ONL", "result": 0, "unit": "%"}, {"measurement": "share with GFAP score less than 2", "setting": "diabetic mice (db/db) [2]; two weeks of administration", "result": 85, "unit": "%"}, {"measurement": "GFAP score of the treated animals", "setting": "diabetic mice (db/db) [2]; two weeks of administration, all cases, score scale 1-5", "result": "< 3"}]}
